# Assay results published in US9642831B2, “Substituted chromanes and method of use” (AbbVie S.á.r.l., priority 2014, dated 2017).
# Assays:
# F508delCFTR [1] = target: T1, F508delCFTR (Homo sapiens, UniProt P13569, DEL508-508); assay: Transepithelial Clamp Circuit (TECC-24) conductance assay on primary human bronchial epithelial cells (hBE-TECC); type: cell-based; set-up: cells isolated from CF patients with the homozygous mutation; endogenous in cells; host or cells: primary human bronchial epithelial (hBE) cells from F508del/F508del CF patients; details: for EC50: primary hBE cells from F508del/F508delCFTR patients, corrector 18-24 hours at 37° C., equivalent short circuit current (Ieq), with control potentiator 1 μM; for Emax: relative to positive control (3 μM Example 1 coupled with control potentiator = 100%), primary hBE F508del/F508del cells, read-out: Maximum % activity (%)
# Text: Transepithelial Clamp Circuit on Human Bronchial Epithelial Cells Conductance Assay:
# A cell based assay using the primary human bronchial epithelial cells (hBE) was used as a secondary assay to test novel F508delCFTR correctors for their activity on primary hBE cells with F508del/F508del CFTR mutation. The assay used a TECC-24 (Transepithelial Clamp Circuit for 24 wells) instrument that measures the functionality of the mutated channel by measuring the equivalent short circuit current (Ieq) generated by the polarized epithelial cells. The instrument works by measuring the transepithelial potential difference (Vt) and transepithelial resistance (Rt) in an open circuit format, and the Ieq is calculated by using Ohms law (Ieq=Vt/Rt). The assay was run in a 24-well format and all 24-wells were measured at the same time point giving a higher throughput for this assay.
# Primary human bronchial epithelial (hBE) cells from F508del/F508delCFTR patients were expanded from 1×10^6 to 250×10^6 cells (Neuberger T, Burton B, Clark H and VanGoor F; Cystic Fibrosis, Methods in Mole Biol 741; eds. Amaral M D and Kunzelmann K, 2011). For this purpose, cells isolated from CF patients with the homozygous mutation were seeded onto 24 well Corning (Cat #3378) filter plates that were coated with 3T3 conditioned media and grown at an air-liquid interface for 35 days using an Ultroser® G supplemented differentiation media. Apical surface mucus was removed 72 hours before the experiment using 3 mM dithiothreitol (DTT) in phosphate buffered saline (PBS). The apical surface was washed again 24 hours before the experiment using PBS. The cells were incubated with the desired dose response of the corrector compounds 18-24 hours at 37° C., 5% CO2. The corrector compounds are only added on the basolateral side of the epithelial cells.
# On the day of measuring the corrector activity on the TECC, the cells were switched into a bicarbonate and serum free F-12 Coon's medium and allowed to equilibrate for 90 minutes in a CO2 free incubator. At the time of measurement, the apical and basolateral sides of the filter were bathed with the F-12 Coon's modification media (with 20 mM 4-(2-hydroxyethyl)-1-piperazineethanesulfonic acid (HEPES), pH 7.4 (using 1 M tris(hydroxymethyl)aminormethane (Tris)), and the measurements were made at 36.5° C. Transepithelial voltage (Vt) and transepithelial resistance (Rt) were measured using a 24 channel transepithelial current clamp (TECC-24). Current responses to the sequential addition of benzamil (apical 6 μM addition; for inhibiting epithelial ENaC channel), forskolin (apical and basolateral 10 μM addition; for activating the CFTR channel), control potentiator (N-(3-carbamoyl-5,5,7,7-tetramethyl-4,7-dihydro-5H-thieno[2,3-c]pyran-2-yl)-1H-pyrazole-5-carboxamide; apical and basolateral 1 μM addition; for potentiating the CFTR channel) and bumetanide (basolateral 20 μM addition; for inhibiting the Na:2Cl:K co-transporter, an indirect measure of inhibiting the Cl-secretion driven by CFTR channel) were measured.
# All plates contained negative controls (dimethyl sulfoxide, DMSO) which coupled with the control potentiator (N-(3-carbamoyl-5,5,7,7-tetramethyl-4,7-dihydro-5H-thieno[2,3-c]pyran-2-yl)-1H-pyrazole-5-carboxamide) sets the null response and positive controls (3 μM of 3-[(2R,4R)-4-({[1-(2,2-difluoro-1,3-benzodioxol-5-yl)cyclopropyl]carbonyl}amino)-7-methoxy-3,4-dihydro-2H-chromen-2-yl]benzoic acid) coupled with the control potentiator sets the 100% response to measure the correction of the mutated CFTR channel. The maximum percent activity is reported relative to the positive control value.
# The % activity measured at each of the 6 test concentrations of the test compound was normalized to the on-plate positive control using the following formula: % activity=[(test compound response−DMSO response)/(positive control response−DMSO response)]*100 […]
# F508delCFTR [2] = target: T1, F508delCFTR; assay: Cell Surface Expression-Horse Radish Peroxidase (CSE-HRP) assay; type: cell-based; set-up: expressed in transfected cells; host or cells: CFBE41o- human lung derived epithelial cell line, doxycycline-inducible; details: CFBE4lo-F508delCFTR-HRP cells; for EC50: 18-24 hours at 33° C., 8-point curve, highest concentration 20 μM, luminescence readout; for Emax: maximum % activity at any tested concentration, normalized to on-plate positive control (3 μM Example 1)
# Procedure, shortened: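 Following 18-24 h compound exposure at 33° C. Expression was doxycycline-induced beforehand. % activity versus DMSO and a 3 μM corrector control gave maximum activity and EC50 from a variable-Hill sigmoidal fit.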
# CYP3A4 = CYP3A4 induction in primary human hepatocytes (mRNA, RT-PCR); details: test compounds 10 μM, 48 hours, % of response of positive control (Rifampin 10 μM)
# Description: Cryopreserved primary human hepatocytes were thawed and cultured overnight prior to treatment. […] Following the 48 hour treatment, hepatocytes were harvested for RNA isolation and reverse transcription, followed by CYP3A4 mRNA quantitation using RT-PCR (real time reverse transcript polymerase chain reaction).
# Fold Induction=Fold of Treated/Fold of Vehicle Control % positive control=(Fold Induction of Treated−1)/(Fold Induction of Prototypical Inducer−1)
# T1 sequence (P13569 with tags, fused parts or gaps DEL508-508): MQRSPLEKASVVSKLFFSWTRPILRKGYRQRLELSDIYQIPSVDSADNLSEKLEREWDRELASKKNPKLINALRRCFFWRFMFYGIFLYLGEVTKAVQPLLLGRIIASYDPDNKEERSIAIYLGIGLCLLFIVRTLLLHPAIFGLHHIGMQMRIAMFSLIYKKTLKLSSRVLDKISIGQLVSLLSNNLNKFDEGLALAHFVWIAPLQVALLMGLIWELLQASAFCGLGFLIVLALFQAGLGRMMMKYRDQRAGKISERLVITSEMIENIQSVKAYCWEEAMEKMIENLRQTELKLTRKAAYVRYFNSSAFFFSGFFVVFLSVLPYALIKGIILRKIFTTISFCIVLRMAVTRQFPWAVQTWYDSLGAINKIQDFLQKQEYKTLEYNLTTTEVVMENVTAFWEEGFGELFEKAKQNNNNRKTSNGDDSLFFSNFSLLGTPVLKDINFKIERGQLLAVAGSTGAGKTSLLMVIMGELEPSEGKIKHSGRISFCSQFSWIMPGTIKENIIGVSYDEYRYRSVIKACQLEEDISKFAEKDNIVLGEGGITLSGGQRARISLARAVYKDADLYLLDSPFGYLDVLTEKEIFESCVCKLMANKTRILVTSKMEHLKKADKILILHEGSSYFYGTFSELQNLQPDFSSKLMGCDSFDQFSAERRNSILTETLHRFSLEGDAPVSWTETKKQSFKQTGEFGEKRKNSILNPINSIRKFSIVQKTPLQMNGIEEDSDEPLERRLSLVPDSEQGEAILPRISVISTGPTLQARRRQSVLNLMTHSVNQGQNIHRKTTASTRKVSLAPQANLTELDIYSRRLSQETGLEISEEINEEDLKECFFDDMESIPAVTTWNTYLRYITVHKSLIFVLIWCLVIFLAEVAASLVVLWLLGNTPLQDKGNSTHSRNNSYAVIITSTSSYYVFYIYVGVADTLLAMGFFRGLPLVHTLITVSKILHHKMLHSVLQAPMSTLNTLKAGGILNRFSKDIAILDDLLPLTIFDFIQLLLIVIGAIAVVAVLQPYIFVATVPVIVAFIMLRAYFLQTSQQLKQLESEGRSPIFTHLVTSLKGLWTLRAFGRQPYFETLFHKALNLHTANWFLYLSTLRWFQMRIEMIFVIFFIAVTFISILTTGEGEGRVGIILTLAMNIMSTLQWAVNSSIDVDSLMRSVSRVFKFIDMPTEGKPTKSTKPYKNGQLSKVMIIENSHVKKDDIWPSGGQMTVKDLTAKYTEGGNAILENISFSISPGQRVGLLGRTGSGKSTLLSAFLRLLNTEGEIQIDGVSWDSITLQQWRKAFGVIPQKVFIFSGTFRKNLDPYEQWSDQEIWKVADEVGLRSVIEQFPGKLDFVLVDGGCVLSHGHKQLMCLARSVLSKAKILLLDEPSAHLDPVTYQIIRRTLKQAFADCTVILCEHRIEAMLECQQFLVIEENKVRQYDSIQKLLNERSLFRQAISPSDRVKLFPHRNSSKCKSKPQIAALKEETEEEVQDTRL
Structure (SMILES),EC50 (F508delCFTR [1]),Emax (F508delCFTR [1]),EC50 (F508delCFTR [2]),Emax (F508delCFTR [2]),CYP3A4 Hepatocytes mRNA % of positive control (CYP3A4)
"O=C(O)C1CCCC([C@H]2C[C@@H](NC(=O)C3(c4ccc5c(c4)OC(F)(F)O5)CC3)c3ccc(C(F)(F)F)cc3O2)C1 (stereo partly drawn) [Example 109, 3-[(2R,4R)-4-({[1-(2,2-difluoro-1,3-benzodioxol-5-yl)cyclopropyl]carbonyl}amino)-7-(trifluoromethyl)-3,4-dihydro-2H-chromen-2-yl]cyclohexanecarboxylic acid]",55 nM,70%,450 nM,94%,42.2%
"COc1ccc2c(c1)O[C@@H](c1ccc(C(=O)O)cc1)C[C@H]2NC(=O)C1(c2ccc3c(c2)OC(F)(F)O3)CC1 [Example 111, 4-[(2R,4R)-4-({[1-(2,2-difluoro-1,3-benzodioxol-5-yl)cyclopropyl]carbonyl}amino)-7-methoxy-3,4-dihydro-2H-chromen-2-yl]benzoic acid]",5 nM,90%,44 nM,113%,−0.105%
"O=C(O)c1ccc([C@H]2C[C@@H](NC(=O)C3(c4ccc5c(c4)OC(F)(F)O5)CC3)c3ccc(OC(F)F)cc3O2)cc1 [Example 122, 4-[(2R,4R)-4-({[1-(2,2-difluoro-1,3-benzodioxol-5-yl)cyclopropyl]carbonyl}amino)-7-(difluoromethoxy)-3,4-dihydro-2H-chromen-2-yl]benzoic acid]",4 nM,87%,26 nM,122%,10.6%
"COc1ccc2c(c1)O[C@@H](c1ccc(C(=O)O)cc1F)C[C@H]2NC(=O)C1(c2ccc3c(c2)OC(F)(F)O3)CC1 [Example 146, 4-[(2R,4R)-4-({[1-(2,2-difluoro-1,3-benzodioxol-5-yl)cyclopropyl]carbonyl}amino)-7-methoxy-3,4-dihydro-2H-chromen-2-yl]-3-fluorobenzoic acid]",4 nM,98%,30 nM,129%,11.6%
